The text below walks through data of US9902701B2, “Pyridazones and triazinones for treatment and prophylaxis of hepatitis B virus infection” (priority 2014, dated 2018).

The subject of the assay is HBsAg. In words: HBsAg assay: chemiluminescence immunoassay (CLIA) of secreted HBsAg in supernatant of HepG2.2.15 cells. The class given is cell-based, HBV. As to conditions: Hepatitis B virus. As to the method:
HepG2.2.15 cells (Acs et al. Proc Natl Acad Sci USA, 84, (1987), 4641-4), a constitutively HBV-expressing cell line were cultured in DMEM+Glutamax-I medium (Invitrogen, Carlsbad, Calif., USA), supplemented with 10% fetal bovine serum (Invitrogen) and G418 (Invitrogen) at a final concentration of 200 mg/L and maintained in 5% CO2 at 37° C.
HepG2.2.15 cells were seeded in duplicate into white, 96-well plates at 1.5×10^4 cells/well. The cells were treated with a three-fold serial dilution series of the compounds in DMSO. The final DMSO concentration in all wells was 1% and DMSO was used as no drug control.
The HBsAg chemiluminescence immunoassay (CLIA) kit (Autobio Diagnostics Co., Zhengzhou, China, Catalog number: CL0310-2) was used to measure the levels of secreted HBV antigens semi-quantitatively. For the detection 50 μL/well culture supernatant was used and HBsAg was quantified using HBsAg chemiluminescence immunoassay (CLIA) kit (Autobio Diagnostics Co., Zhengzhou, China, Catalog number: CL0310-2), 50 μL of the supernatant was transferred to the CLIA assay plate and 50 μL of enzyme conjugate reagent was added into each well. The plates were sealed and gently agitated for 1 hour at room temperature. The supernatant-enzyme-mixture was discarded and wells were washed 6 times with 300 μL of PBS. The residual liquid was removed by plating the CLIA plate […] on absorbent tissue paper. 25 μL of substrates A and B were added to each well. Luminance was measured using a luminometer (Mithras LB 940 Multimode Microplate Reader) after 10 minutes incubation. Dose-response curves were generated and the IC50 value was extrapolated by using the E-WorkBook Suite (ID Business Solutions Ltd., Guildford, UK). The IC50 was defined as the compound concentration (or conditioned media log dilution) at which HBsAg secretion was reduced by 50% compared to the no drug control.
In the case of `CN(C(=O)Cn1nc(-c2ccc(Cl)cc2)ccc1=O)c1ccc(Cl)cc1` [Example 2-5, N-(4-Chlorophenyl)-2-[3-(4-chlorophenyl)-6-oxo-pyridazin-1-yl]-N-methyl-acetamide], inhibition was half-maximal at 1.77 µM (IC50).
Turning to `CN(C(=O)CN1N=C(c2ccc(Cl)cc2)CNC1=O)c1ccc(C(F)(F)F)cc1` [Example 3-1, 2-[6-(4-Chlorophenyl)-3-oxo-4,5-dihydro-1,2,4-triazin-2-yl]-N-methyl-N-[4-(trifluoromethyl)phenyl]acetamide], the IC50 (in general, the point on the concentration scale where inhibition reaches its midpoint) was 10.3 µM.
In turn, `CN(C(=O)Cn1nc(-c2ccc(Cl)cc2)cnc1=O)c1ccc(Cl)cc1` [Example 3-2, N-(4-Chlorophenyl)-2-[6-(4-chlorophenyl)-3-oxo-1,2,4-triazin-2-yl]-N-methyl-acetamide] returned an IC50 of 6.23 µM.
